Test results taken from ChEMBL document CHEMBL1131493, “Inhibitors of farnesyl protein transferase. 4-Amido, 4-carbamoyl, and 4-carboxamido derivatives of 1-(8-chloro-6,11-dihydro-5H-benzo[5,6]- cyclohepta[1,2-b]pyridin-11-yl)piperazine and 1-(3-bromo-8-chloro-6,11- dihydro-5H-benzo[5,6]cyclohepta[1,2-b]pyridin-11-yl)piperazine” (J Med Chem, 1998).

Key:
[1] = target: T1, Protein farnesyltransferase (Homo sapiens, UniProt P49354+P49356); assay: In vitro inhibition of farnesyltransferase farnesylation of the H-ras oncogene; type: protein-complex assay; parameters: Inhibition: concentration or dose not given beside the values
[2] = target: T1, Protein farnesyltransferase; assay: Inhibition of Farnesyltransferase from Ras-CVLS or Ras-CVLL in Cos-7 monkey kidney cells; type: cell-based, Chlorocebus aethiops

## NC(=O)N1CCCC2C(C(=O)N3CCN(C4c5ccc(Cl)cc5CCc5cc(Br)cnc54)CC3)CCCC21 (stereo not given)
[1]
  IC50: 1.4 µM

## CN1CCC(CC(=O)N2CCN([C@@H]3c4ccc(Cl)cc4CCc4cccnc43)CC2)CC1
[1]
  IC50: 1.8 µM

## O=C(Oc1ccc[n+]([O-])c1)N1CCN(C2c3ccc(Cl)cc3CCc3cccnc32)CC1 (stereo not given)
[1]
  IC50: 3.1 µM

## O=C(CC1CCNCC1)N1CCN(C2c3ccc(Cl)cc3CCc3cccnc32)CC1 (stereo not given)
[1]
  IC50: 1.25 µM

## CC(C)(C)OC(=O)NCC(=O)N1CCN(C2c3ccc(Cl)cc3CCc3cccnc32)CC1 (stereo not given)
[1]
  IC50: 4.8 µM

## O=C(NCc1ccccc1)N1CCN(C2c3ccc(Cl)cc3CCc3cccnc32)CC1 (stereo not given)
[1]
  IC50: 4.1 µM

## CN1CCCC(OC(=O)N2CCN(C3c4ccc(Cl)cc4CCc4cccnc43)CC2)C1 (stereo not given)
[1]
  IC50: 2.1 µM

## CC(C)(C(=O)N1CCN(C2c3ccc(Cl)cc3CCc3cccnc32)CC1)c1ccc[n+]([O-])c1 (stereo not given)
[1]
  IC50: 1.26 µM

## CN1CCCC(CC(=O)N2CCN([C@@H]3c4ccc(Cl)cc4CCc4cccnc43)CC2)C1 (stereo not given in full)
[1]
  IC50: 0.7 µM

## N[C@@H](CS)C(=O)N1CCN(C2c3ccc(Cl)cc3CCc3cc(Br)cnc32)CC1 (stereo not given in full)
[1]
  IC50: 2.1 µM

## CNC(=S)N1CCC(CC(=O)N2CCN(C3c4ccc(Cl)cc4CCc4cccnc43)CC2)CC1 (stereo not given)
[1]
  IC50: 0.88 µM

## COC(=O)N1CCCC(CC(=O)N2CCN(C3c4ccc(Cl)cc4CCc4cccnc43)CC2)C1 (stereo not given)
[1]
  IC50: 7 µM

## NC(=O)N1CCC(CC(=O)N2CCN(C3c4ccc(Cl)cc4CCc4cccnc43)CC2)CC1 (stereo not given)
[1]
  IC50: 0.82 µM

## CCN1CCC(CC(=O)N2CCN(C3c4ccc(Cl)cc4CCc4cccnc43)CC2)CC1 (stereo not given)
[1]
  IC50: 1.27 µM

## CC(=O)N1CCC(C(=O)N2CCN([C@H]3c4ccc(Cl)cc4CCc4cccnc43)CC2)CC1
[1]
  IC50: 1.8 µM
[2]
  IC50: 6.5 µM

## CC(C(=O)N1CCN(C2c3ccc(Cl)cc3CCc3cccnc32)CC1)c1cccnc1 (stereo not given)
[1]
  IC50: 4.9 µM

## CC(C)(C(=O)N1CCN(C2c3ccc(Cl)cc3CCc3cc(Br)cnc32)CC1)c1cc[n+]([O-])cc1 (stereo not given)
[1]
  IC50: 0.39 µM
[2]
  IC50: 5 µM

## O=C(CC1CCCNC1)N1CCN(C2c3ccc(Cl)cc3CCc3cccnc32)CC1 (stereo not given)
[1]
  IC50: 1.1 µM

## CC(C)(C)OC(=O)N1CCC(CC(=O)N2CCN(C3c4ccc(Cl)cc4CCc4cc(Br)cnc43)CC2)CC1 (stereo not given)
[1]
  IC50: 1.29 µM

## O=C(Cc1ccc[n+]([O-])c1)N1CCN(C2c3ccc(Cl)cc3CCc3ccc[n+]([O-])c32)CC1 (stereo not given)
[1]
  IC50: 3.8 µM
[2]
  IC50: > 20 µM

## CC(C)(C)NC(=O)N1CCC(CC(=O)N2CCN(C3c4ccc(Cl)cc4CCc4cccnc43)CC2)CC1 (stereo not given)
[1]
  IC50: 1 µM

## O=C(c1cccc2cccnc12)N1CCN(C2c3ccc(Cl)cc3CCc3cc(Br)cnc32)CC1 (stereo not given)
[1]
  IC50: 1.8 µM

## NC(=O)N1CCCc2c(C(=O)N3CCN(C4c5ccc(Cl)cc5CCc5cc(Br)cnc54)CC3)cccc21 (stereo not given)
[1]
  Inhibition: 45%

## NC(=O)N1CCC(CC(=O)N2CCN(C3c4ccc(Cl)cc4C=Cc4cc(Br)cnc43)CC2)CC1 (stereo not given)
[1]
  IC50: 0.045 µM

## CNC(=O)N1CCC(CC(=O)N2CCN(C3c4ccc(Cl)cc4CCc4cccnc43)CC2)CC1 (stereo not given)
[1]
  IC50: 1.05 µM

## Clc1ccc2c(c1)CCc1cccnc1C2N1CCN(CCc2cccnc2)CC1 (stereo not given)
[1]
  Inhibition: 23%

## COCC[C@H]1CN(C2c3ccc(Cl)cc3CCc3cc(Br)cnc32)CCN1C(=O)CC1CCN(C(N)=O)CC1 (stereo not given in full)
[1]
  IC50: 0.092 µM
[2]
  IC50: 1.7 µM

## CN(C)c1ccc(C(=O)N2CCN(C3c4ccc(Cl)cc4CCc4cccnc43)CC2)cc1 (stereo not given)
[1]
  IC50: 20.2 µM

## O=C(Cc1cccnc1)N1CCN(C(c2ccncc2)c2ccc(Cl)cc2)CC1 (stereo not given)
[1]
  IC50: 48 µM

## O=C(Cc1cc[n+]([O-])cc1)N1CCN(C2c3ccc(Cl)cc3CCc3cccnc32)CC1 (stereo not given)
[1]
  IC50: 0.74 µM

## CC(C)(C(=O)N1CCN(C2c3ccc(Cl)cc3CCc3cccnc32)CC1)c1cc[n+]([O-])cc1 (stereo not given)
[1]
  IC50: 2.2 µM

## O=C(Cc1ccccc1)N1CCN(C2c3ccc(Cl)cc3CCc3cccnc32)CC1 (stereo not given)
[2]
  IC50: 12 µM

## N[C@@H](CS)C(=O)N1CCC(CC(=O)N2CCN(C3c4ccc(Cl)cc4CCc4cc(Br)cnc43)CC2)CC1 (stereo not given in full)
[1]
  IC50: 0.23 µM

## C[C@H](N)C(=O)N1CCC(CC(=O)N2CCN(C3c4ccc(Cl)cc4CCc4cccnc43)CC2)CC1 (stereo not given in full)
[1]
  IC50: 2.5 µM

## O=C(Nc1cccnc1)N1CCN([C@@H]2c3ccc(Cl)cc3CCc3cccnc32)CC1
[1]
  IC50: 3.2 µM

## O=C(Oc1ccccc1)N1CCN(C2c3ccc(Cl)cc3CCc3cccnc32)CC1 (stereo not given)
[1]
  IC50: 0.8 µM

## CC(S)C(=O)NCC(=O)N1CCN(C2c3ccc(Cl)cc3CCc3cccnc32)CC1 (stereo not given)
[1]
  IC50: 2.78 µM

## CN1CCC(CC(=O)N2CCN([C@H]3c4ccc(Cl)cc4CCc4cccnc43)CC2)CC1
[1]
  IC50: 0.64 µM

## CC(C)(C)NC(=O)N1CCC(CC(=O)N2CCN(C3c4ccc(Cl)cc4CCc4cc(Br)cnc43)CC2)CC1 (stereo not given)
[1]
  IC50: 0.108 µM

## CCCNC(=O)N1CCC(CC(=O)N2CCN(C3c4ccc(Cl)cc4CCc4cccnc43)CC2)CC1 (stereo not given)
[1]
  IC50: 0.88 µM

## CC(=O)N1CCC(CC(=O)N2CCN([C@@H]3c4ccc(Cl)cc4CCc4cccnc43)CC2)CC1
[1]
  IC50: 3.5 µM

## COCC[C@H]1CN(C2c3ccc(Cl)cc3CCc3cc(Br)cnc32)CCN1C(=O)CC1CCNCC1 (stereo not given in full)
[1]
  IC50: 0.069 µM

## CC(C)(C(=O)N1CCN(C2c3ccc(Cl)cc3CCc3cccnc32)CC1)c1ccccc1 (stereo not given)
[1]
  IC50: 3.3 µM

## CSCC[C@H](N)C(=O)N1CCC(CC(=O)N2CCN(C3c4ccc(Cl)cc4CCc4cccnc43)CC2)CC1 (stereo not given in full)
[1]
  IC50: 1.89 µM

## O=C(N1CCN(C2c3ccc(Cl)cc3CCc3cccnc32)CC1)n1ccnc1 (stereo not given)
[1]
  IC50: 9.8 µM

## O=C(Cc1ccncc1)NCCNC1c2ccc(Cl)cc2CCc2cccnc21 (stereo not given)
[1]
  IC50: 25.8 µM

## NC(=O)N1CCCC(CC(=O)N2CCN(C3c4ccc(Cl)cc4CCc4cccnc43)CC2)C1 (stereo not given)
[1]
  IC50: 1.75 µM

## O=C(Oc1ccccc1)N1CCN(C2c3ccc(Cl)cc3C=Cc3cccnc32)CC1 (stereo not given)
[1]
  IC50: 0.88 µM

## O=C(CC1CCNCC1)N1CCN(C2c3ccc(Cl)cc3C=Cc3cc(Br)cnc32)CC1 (stereo not given)
[1]
  IC50: 0.083 µM

## O=C(C1CCCC2NCCCC21)N1CCN(C2c3ccc(Cl)cc3CCc3cc(Br)cnc32)CC1 (stereo not given)
[1]
  Inhibition: 23%

## CC(=O)N1CCC(C(=O)N2CCN([C@@H]3c4ccc(Cl)cc4CCc4cccnc43)CC2)CC1
[1]
  IC50: 4.1 µM

## O=C(Cc1cc[n+]([O-])cc1)N1CCN(C2c3ccc(Cl)cc3CCc3c(Cl)ccnc32)CC1 (stereo not given)
[1]
  IC50: 0.33 µM

## CN1CCC(NC(=O)N2CCN(C3c4ccc(Cl)cc4CCc4cccnc43)CC2)CC1 (stereo not given)
[1]
  IC50: 0.47 µM

## CN1CCC(OC(=O)N2CCN(C3c4ccc(Cl)cc4CCc4cccnc43)CC2)CC1 (stereo not given)
[1]
  Inhibition: 35%

## O=C(N1CCN(C2c3ccc(Cl)cc3CCc3cc(Br)cnc32)CC1)n1ccnc1 (stereo not given)
[1]
  IC50: 1.77 µM

## COC(=O)N1CCC(CC(=O)N2CCN(C3c4ccc(Cl)cc4CCc4cccnc43)CC2)CC1 (stereo not given)
[1]
  IC50: 1.3 µM

## O=C(Cc1cccnc1)N1CCN(C(=O)c2ccc(Cl)cc2)CC1
[1]
  Inhibition: 32%

## NCNC(=O)N1CCC(CC(=O)N2CCN(C3c4ccc(Cl)cc4CCc4cccnc43)CC2)CC1 (stereo not given)
[1]
  IC50: 2.5 µM

## CC(=O)N1CCCC(C(=O)N2CCN(C3c4ccc(Cl)cc4CCc4cccnc43)CC2)C1 (stereo not given)
[1]
  IC50: 4.3 µM

## CN1CCCC(OC(=O)N2CCN(C3c4ccc(Cl)cc4CCc4cc(Br)cnc43)CC2)C1 (stereo not given)
[1]
  IC50: 0.3 µM

## O=C(C1CCNCC1)N1CCN(C2c3ccc(Cl)cc3CCc3cccnc32)CC1 (stereo not given)
[1]
  IC50: 11.3 µM

## CCNC(=O)N1CCC(CC(=O)N2CCN(C3c4ccc(Cl)cc4CCc4cccnc43)CC2)CC1 (stereo not given)
[1]
  IC50: 0.92 µM

## N[C@@H](CS)CN1CCN(C2c3ccc(Cl)cc3CCc3cc(Br)cnc32)CC1 (stereo not given in full)
[1]
  Inhibition: 19%

## CNC(=O)N1CCC[C@@H](CC(=O)N2CCN(C3c4ccc(Cl)cc4CCc4cccnc43)CC2)C1 (stereo not given in full)
[1]
  IC50: 7 µM

## CN1CCCC(C(=O)N2CCN(C3c4ccc(Cl)cc4CCc4cccnc43)CC2)C1 (stereo not given)
[1]
  IC50: 6.8 µM

## O=C(c1cccc2c1ccc[n+]2[O-])N1CCN(C2c3ccc(Cl)cc3CCc3cc(Br)cnc32)CC1 (stereo not given)
[1]
  Inhibition: 38%

## CN1CCCC(NC(=O)N2CCN(C3c4ccc(Cl)cc4CCc4cccnc43)CC2)C1 (stereo not given)
[1]
  IC50: 0.66 µM

## CC(C)(C)OC(=O)N1CCC(C(=O)N2CCN(C3c4ccc(Cl)cc4CCc4cccnc43)CC2)CC1 (stereo not given)
[1]
  Inhibition: 20%

## Clc1ccc2c(c1)CCc1cccnc1C2N1CCNCC1 (stereo not given)
[1]
  IC50: 30.3 µM

## O=C(CC1CCNCC1)N1CCN([C@H]2c3ccc(Cl)cc3CCc3cc(Br)cnc32)CC1
[1]
  IC50: 0.078 µM

## CC(C)(C(=O)N1CCN(C2c3ccc(Cl)cc3CCc3cccnc32)CC1)c1cccnc1 (stereo not given)
[2]
  IC50: 6.1 µM

## CC(C)(C)OC(=O)N1CCC(CC(=O)N2CCN(C3c4ccc(Cl)cc4CCc4cccnc43)CC2)CC1 (stereo not given)
[1]
  IC50: 7.4 µM

## N[C@@H](CO)C(=O)N1CCC(CC(=O)N2CCN(C3c4ccc(Cl)cc4CCc4cccnc43)CC2)CC1 (stereo not given in full)
[1]
  IC50: 1.1 µM

## O=C(c1cccc2ncccc12)N1CCN(C2c3ccc(Cl)cc3CCc3cc(Br)cnc32)CC1 (stereo not given)
[1]
  Inhibition: 38%

## O=C(Nc1cc[n+]([O-])cc1)N1CCN(C2c3ccc(Cl)cc3CCc3cccnc32)CC1 (stereo not given)
[1]
  IC50: 1.8 µM

## CN1CCCC(NC(=O)N2CCN(C3c4ccc(Cl)cc4CCc4cc(Br)cnc43)CC2)C1 (stereo not given)
[1]
  IC50: 0.054 µM

## CC(C)(C(=O)N1CCN(C2c3ccc(Cl)cc3CCc3cccnc32)CC1)c1ccncc1 (stereo not given)
[1]
  IC50: 1.74 µM

## CC(=O)N1CCCC(CC(=O)N2CCN(C3c4ccc(Cl)cc4CCc4cccnc43)CC2)C1 (stereo not given)
[1]
  IC50: 3.1 µM

## O=C(c1cccc2ncccc12)N1CCN(C2c3ccc(Cl)cc3CCc3cccnc32)CC1 (stereo not given)
[1]
  Inhibition: 15%

## CN1CCCC(CC(=O)N2CCN([C@H]3c4ccc(Cl)cc4CCc4cccnc43)CC2)C1 (stereo not given in full)
[1]
  IC50: 0.6 µM

## O=C(Nc1ccc[n+]([O-])c1)N1CCN(C2c3ccc(Cl)cc3CCc3cccnc32)CC1 (stereo not given)
[1]
  IC50: 2.2 µM
